Experimental data published in patent US20220324958A1, “ANTI-INFLAMMATORY PEPTIDES, PHARMACEUTICAL COMPOSITION CONTAINING SUCH PEPTIDES, AND USES THEREOF” (INSTITUTO BUTANTAN, priority 2019, published 2022).
No end group written: not given here.

How the values were obtained:
[1] = system: neurons obtained from SHSY5Y cells; experiment: Anti-nociceptive/anti-inflammatory model, neurons stimulated with glycated collagen (GC): substance P and β-endorphin in supernatant; type: cell-based; details: peptide 200 nM incubated 3 hours after GC (100 μg/mL)
Procedure: ANOVA and Dunnet * p<0.05; ** p<0.01 compared to glycated collagen (GC);
ANOVA and Dunnet * p<0.05 ** p<0.01, *** p<0.001 compared with GC;
(§1) The differentiation process consists of 6 stages distributed over 7 days. On the first day of the differentiation protocol (day 0), cells were seeded in collagen-coated plates. On days 1, 3, and 4 the culture medium was removed, and the differentiation medium containing 2% fetal bovine serum (FBS) and retinoic acid (RA) 10 μM) was added. On day 5, the medium was removed and the culture was incubated with culture medium and brain-derived neurotrophic factor (BDNF) (50 ng/mL). On day 7 of the differentiation process, differentiated neurons are fully ready for use (Agholme et al., 2010, with some modifications).
(§2) 7×10^3 neurons/well were incubated with 10 μM of morphine (inhibitory response control) or peptides (200 nM and 500 nM) 3 hours before or 3 hours after incubation with IL-1β (10 ng/mL) or glycated collagen (GC) (100 μg/mL) (both positive controls for the release of substance P). After 24 hours of incubation, the cell viability assay and the detection of substance P and β-endorphin in the supernatant were performed. Multiplex with magnetic spheres (MILLIPLEX® MAP Magnetic Bead Panel)
ANOVA and Dunnet * p<0.05; ** p<0.01 compared to GC.
ANOVA and Dunnet * p<0.05 ** p<0.01, *** p<0.001 compared to GC.

[2] = system: THP-1 cells differentiated into macrophages; experiment: LPS-induced cytokine production in THP-1-derived macrophages (Multiplex); type: cell-based, human
Procedure: THP-1 cells differentiated into macrophages were induced with LPS (10 ng/mL) and, one hour later, treated with synthetic peptides at a concentration of 200 nM. Dexamethasone (10 μM), an inflammatory inhibitor, was used as a control. After 24 hours, the culture medium was collected to measure the IL-1β (A), IL-6 (B), TNF-α (C), and IL-10 cytokines using a Multiplex kit. * p<0.05 vs. LPS; ** p<0.01 vs. LPS; *** p<0.005 vs. LPS;
THP-1 cells differentiated into macrophages were induced with LPS (10 ng/mL) and, one hour later, treated with L4 or D3 peptide (0.05 μM, 0.2 μM, 1 μM, and 2 μM). After 24 hours, the culture medium was collected and TNF-alpha, IL-6, IL-23, and IL-8 were measured by Multiplex. (A) L4 peptide. (B) D3 peptide;
(§3) Macrophages were obtained from the differentiation of monocytes THP-1. Briefly, 1×10^7 cells were treated in the RPMI medium with 25 nM PMA for 48 hours followed by 24 hours of rest in medium without PMA. Subsequently, the cells were released and plated for the respective treatments.
The kit is based on Luminex® xMAP® technology that allows the simultaneous analysis of various cytokines. The technique is based on marked magnetic fluorescent spheres, known as MagPlex®-C microspheres. These microspheres are covered with capture antibodies specific for IL-6 […], and specifically capture the analyte in the supernatant. Each microsphere was individually identified and the results were analyzed using Luminex® Xponent® 4.2 acquisition software.
THP-1 cells differentiated into macrophages were induced with LPS (10 ng/mL) and, one hour later, treated with synthetic peptides, […] (inflammation inhibitor, 10 μM). After 24 hours, the culture medium was collected and IL-1β (A), IL-6 (B), TNF-α (C), and IL-10 were measured by Multiplex. * p<0.05 vs. LPS; ** p<0.01 vs. LPS; *** p<0.005 vs. LPS.
THP-1 cells differentiated into macrophages were induced with LPS (10 ng/mL) and, one hour after, treated with L4 (0.05 μM, 0.2 μM, 1 μM, and 2 μM). After 24 hours, the culture medium was collected and TNF-α, IL-6, IL-23, and IL-8 were measured by Multiplex. (A) L4 peptide. (B) D3 peptide.

[3] = system: neurons obtained from SHSY5Y cells; experiment: Anti-nociceptive/anti-inflammatory model, neurons stimulated with IL-1β: substance P and β-endorphin in supernatant; type: cell-based
Procedure: ANOVA and Dunnet ** p<0.01, *** p<0.001 compared to IL-1β;
as §1, §2
ANOVA and Dunnet ** p<0.01, *** p<0.001 compared to […]

[4] = system: human chondrocytes (NHAC-kn); experiment: Pro-inflammatory model of chondrocytes treated with IL-1β, cytokine release (Multiplex); type: cell-based; details: chondrocytes treated with IL-1β (1 ng/mL)
Procedure: Values were obtained from each analyte in pg/mL from treatment with the peptides in the presence of IL-1β (1 ng/mL). The data are presented as the mean±MSE (* p<0.05 when compared to the control with IL-1β, test t, n=3).
(B) Chondrocytes were pretreated for 1 hour with IL-1β (1 ng/mL) before the addition of peptides (200 nM, 500 nM, and 1.25 μM) and an additional incubation of 24 hours before collecting the supernatants.
The primary human chondrocytes used in this assay were purchased from Lonza: Normal Human Articular Primary chondrocytes (NHAC-Kn, #CC-2550, Lot 8F3336). Chondrocyte cell culture was performed in bottles (Sarstedt T175 and T75). The cells were cultivated in DMEM culture medium (Sigma) supplemented with 10% fetal bovine serum (FBS) (Sigma), incubated in an oven at 37° C. and 5% CO2, and cultures were used in the sixth passage. The culture medium was changed every two days until the culture reached 80% confluence.
The identification and quantitative analysis of the cytokines present in the peptide treatment supernatant were performed using the Luminex xMAP Milliplex MAP Human Cytokine/Chemokine Magnetic Bead Panel Catalog #HCYTOMAG-60K technology, according to the manufacturer's instructions.
Values were obtained from each analyte in pg/mL from treatment with the peptides in the presence of IL-1β (1 ng/mL). The data are presented as the mean±MSE (*p<0.05 when compared to the control with IL-1β, test t, n=3).

[5] = system: macrophages derived from THP-1; experiment: Cell viability (MTT) of macrophages derived from THP-1; type: cell-based, human
Procedure: as §3
The evaluation of metabolically active cells was performed using the colorimetric assay of [3-(4,5-dimethylthiazol-2-yl)-2,5-diphenyl tetrazolium] bromide (MTT, Sigma-Aldrich, St. Louis, USA), as previously reported (Twentyman et al., 1987). After each incubation period, the supernatant was removed and a MTT solution (0.5 mg/mL in phosphate-buffered saline—PBS) was added, and the cells incubated at 37° C. and 5% CO2 for 3 hours (Yang et al., 2012). After this period, the solution was removed and crystals of dark blue formazan were solubilized with 1 mL of dimethyl sulfoxide (DMSO, Merck, Darmstad) for 5 minutes. Quantification of formazan was done using an automatic ELISA microplate reader (SLT, Austria) at 570 nm.

[6] = LPS 10 ng/mL, peptide 200 nM one hour later, 24 hours, vs group treated only with LPS
[7] = dose-response 0.05, 0.2, 1 and 2 μM, LPS 10 ng/mL, 24 hours
[8] = peptide 200 nM added 3 hours after IL-1β (10 ng/mL)

Sequence	production of Substance P [1]	production of β-endorphin [1]	levels of IL-10 (anti-inflammatory cytokine) ([2]; LPS 10 ng/mL, peptide 200 nM one hour later, 24 hours)	levels of IL-1β [2, 6]	levels of IL-6 [2, 6]	levels of TNF-a [2, 6]	best dose regarding IL-6 release [2, 7] [µM]	best dose regarding IL-8 release [2, 7] [µM]	most effective dose concerning IL-23 release [2, 7] [µM]	most effective dose concerning TNF-α release [2, 7] [µM]	production of inflammatory cytokines in response to LPS (dose-dependent) ([2]; dose-response 0.05-2 μM, TNF-α, IL-6, IL-23, IL-8)	production of Substance P [3, 8]	production of β-endorphin [3, 8]	production of substance P induced by IL-1β ([3]; peptide 200 nM added 3 hours before IL-1β (10 ng/mL))	anti-inflammatory activity (release of G-CSF, GM-CSF, IL-6, IL-8, MCP-1, TNF-α) [4]	viability of macrophages derived from THP-1 [5]
DYWHDGHDLN (Designated peptide based on the motif of a group of proteins called hemoline from lepidoptera acting as an anti-inflammatory molecule.) [D3]	significantly inhibited	increased	reduced	significantly reducing	significantly reducing	significantly reducing	1	1	1	1	reduced	inhibit	induced	significantly inhibited	anti-inflammatory activity	–
YAIGYSCKDYK [P4, YAIGYSCKDYK]	–	–	–	–	–	–	–	–	–	–	–	–	–	–	–	no effect
